Test results published in patent US20180116976A1, “METHODS AND COMPOSITIONS FOR UNWANTED OR ABNORMAL MUSCLE CONTRACTIONS” (Flex Pharma, Inc., priority 2015, published 2018).

Tests used:
[1] = test system: human dorsal root ganglion neurons; assay: Calcium flux (ΔF/F) in human dorsal root ganglion neurons ex vivo, TRPV1/TRPA1 activation; type: cell-based; conditions: calcium-sensitive dye, FIG. 1
Description: Selective TRPV1 and TRPA1 activation responses were measured for exemplary compositions of the invention in human dorsal root ganglion neurons ex vivo and compared with TRPV1/TRPA1 co-activation responses. The degree of neuron activation was assessed by inward calcium flux using neurons preloaded with a calcium-sensitive fluorescent dye. Intracellular cellular calcium levels were then monitored by wide-field fluorescent microscopy. The change in intracellular fluorescence relative to baseline fluorescence (ΔF/F) was quantified, and the results are shown in FIG. 1.

[2] = test system: flexor hallucis brevis muscle; assay: Electrically induced flexor hallucis brevis cramp, surface EMG AUC over 140 seconds, additional beverage study (Example 3); type: in vivo, human; conditions: 29 mg, 140 second observation period; FIG. 10
Description: An additional study was carried out comparing exemplary compounds and combinations thereof as summarized in Table 3 below, each administered as a beverage formulation.
Cramp intensity was assessed by integrating the area under the curve (AUC) of a surface EMG signal over a 140 second observation period post electrical induction of a cramp in the flexor hallucis brevis muscle as previously described. […] The overall change between the pre-treatment baseline and mean vehicle control response was minimal.

[3] = test system: flexor hallucis brevis muscle; assay: Externally-induced cramping of the flexor hallucis brevis muscle, 6-shogaol orally disintegrating tablet (Example 4); type: in vivo, human; conditions: ODT
Description: The goal of this study was to assess the effectiveness of 6-shogaol formulated as an orally disintegrating tablet (ODT) in the prevention of externally-induced cramping of the flexor hallucis brevis muscle of the foot. The study was carried in two parts. The first part was an open label, placebo-controlled, 5-visit study evaluating vehicle (lactose and sucrose), 0.5 mg, 2.5 mg, 10/6.9 mg, and 40/33 mg 6-shogaol. The second part was a randomized, single-blind, placebo-controlled, 4-visit study evaluating vehicle (lactose and sucrose), 0.5 mg, 20/18.5 mg, and 60/55.5 mg 6-shogaol. Screening of subjects occurred within 28 days in a similar manner as described above in Example 1. Note that dosage values separated by a “/” indicate the nominal versus the actual doses as determined by Chromadex.
The collected EMG data was analyzed for the baseline adjusted integrated EMG (IEMG) level, also referred to as area under the curve (AUC), and cramp duration, as described in Example 1. FIG. 11 and FIG. 12 summarize the average change and ratio in AUC values for all subjects compared by administered treatment both parts of the study. […] The data in FIG. 15 and FIG. 16 further support these findings.

| SMILES | neuron activation response, change in intracellular fluorescence relative to baseline (ΔF/F) [1] | decrease in cramp intensity compared to other treatments tested [2] | reduction in AUC compared to its study specific vehicle control [2] [fold] | cramp inhibition ([3]; 0.5 mg dosage level) | cramp inhibition ([3]; 2.6 mg dosage level) | cramp inhibition ([3]; 6.9 mg) | time over which cramp inhibition was sustained ([3]; 33 mg and 55 mg dosage levels) [h] | cramp inhibition ([3]; 33 mg dosage level) [%] | cramp inhibition ([3]; 55 mg dosage level) [%] |
| --- | --- | --- | --- | --- | --- | --- | --- | --- | --- |
| CCCCCC(O)CC(=O)CCc1ccc(O)c(OC)c1 (stereo not shown) [Treatment 6-gingerol, 6-gingerol] | synergistic response |  |  |  |  |  |  |  |  |
| CCCCC/C=C/C(=O)CCc1ccc(O)c(OC)c1 [Treatment 6-shogaol, 6-shogaol] | synergistic response | greater decrease | 5 | no efficacy | no efficacy | roughly 40% | ≥ 8 | 75 | 75 |
